Like-named read-outs stand apart in the source and are kept apart here.
Experiments:
[1] = Rat pharmacokinetics, oral gavage; type: in vivo, Sprague-Dawley rats; set-up: AUClast/D: unit not given here; details: for MRT inf: read-out: MRTInf—obs; for Tmax: read-out: Tmax
Procedure: Groups, Dosing, and Collection. […] Three rats per group were perorally administered 20, 60, or 200 mg Compound 1 free acid or 25, 75, or 250 mg in 0.5% methylcellulose in Saline for a final concentration of 2, 6, or 20 mg/mL Compound 1 free acid or 2.5, 7.5, or […]. Plasma was collected at 5 min, 15 min, 30 min, 1 hour, 2 hour, 4 hour, 6 hour, 8 hour, and 24 hour post dose via jugular vein.
Stock and Dose Prep. Stock solutions were prepared by dissolving 2.47 mg of Compound 1 (free acid) in 2.470 mL DMSO with vortexing to obtain 1 mg/mL solution of Compound 1 (free acid), or 2.09 mg of Compound 1 (Tris salt) in […] DMSO with vortexing to obtain 1 mg/mL solution of Compound 1 (Tris salt). Dosing solutions were prepared by vortexing/sonicating the following solids in solvent:
LC MS-MS Analysis. Liquid Chromatography with tandem mass spectrometry was used to determine plasma concentrations of Compound 1 Free Acid and Compound 1 Tris Salt in plasma samples collected at prescribed time points.
Appropriate serial concentrations of working solutions were achieved by diluting stock solution of analyte with 50% acetonitrile in water solution. Five μL of working solutions (10, 20, 50, 100, 500, 1000, 5000, 8000, 10000 ng/mL) were added to 50 μL of the blank male SD Rat plasma to achieve calibration standards of 1˜1000 ng/ml (1, 2, 5, 10, 50, 100, 500, 800, 1000 ng/mL) in a total volume of 55 μL. Five quality control (QC) samples at 2 ng/mL, 5 ng/mL, 10 ng/mL, 50 ng/mL and 800 ng/mL for plasma were prepared independently of those used for the calibration curves. These QC samples were prepared on the day of analysis in the same way as calibration standards. 55 μL standards, 55 μL QC samples and 55 μL unknown samples (50 μL plasma/blood with 5 μL blank solution) were added to 200 μL of methanol containing internal standard (dexamethasone) mixture for precipitating protein respectively, and vortexed for 30 seconds. After centrifugation at 4° C. and 4000 rpm for 15 minutes. The supernatant was diluted with water with a ratio of 1:2. 2 μL of the supernatant was injected into the LC/MS/MS system for quantitative analysis.
Instrumentation included HALO 90A C18 2.7 μm 2.1×50 mm HPLC column, a Prominence degasser DGU-20A5R(C), liquid chromatograph Shimadzu LC-30AD with communications bus module CBM-20A and Auto SIL-20AC HT; and an AB Sciex Triple Quad 5500 LC/MS/MS instrument.

[2] = 28-day repeat-dose toxicity study in rats; type: in vivo; details: Sprague Dawley, rat; for NOAEL at 28 days: in vivo; for AUC(0-t) / Cmax: plasma; for AUC(0-t): read-out: AUC0-24 at NOAEL; for Cmax: read-out: Cmax at NOAEL
Procedure: Compound 1 was administered to Sprague Dawley rats by oral gavage at doses of 25, 75, and 250 mg/kg/day (females) and 40, 120, and 400 mg/kg/day (males) for 28 days. Compound 1-related mortality occurred in 8 of the 15 toxicity males administered 400 mg/kg/day beginning on Day 8 through 24. […] Target tissues included bone marrow, spleen, thymus, liver, lymph nodes, epididymides, seminal vesicles, prostate, testes, uterus, and ovaries.
Compound 1 tris salt was evaluated for safety in 7- and 28-day studies in rats and dogs. […] The NOAELs for this rat study were 120 mg/kg/day for males and 75 mg/kg/day for females. […] The NOAEL determined in the 28-day dog GLP study was 150 mg/kg/day. These correspond to human equivalent doses (HEDs) of: • Rat: 75 mg/kg×0.16=12 mg/kg • Dog: 150 mg/kg×0.54=81 mg/kg

[3] = Sprague-Dawley, plasma, rat PO 20 mg/kg, female, mean
[4] = Sprague-Dawley, plasma, rat PO 20 mg/kg, male, mean
[5] = Sprague-Dawley, plasma, rat PO 60 mg/kg, female, mean
[6] = Sprague-Dawley, plasma, rat PO 60 mg/kg, male, mean
[7] = Sprague-Dawley, plasma, rat PO 200 mg/kg, female, mean
[8] = Sprague-Dawley, plasma, rat PO 200 mg/kg, male, mean

## CC(C)(OCc1cc(-c2cccc(OC3CCC3)c2)n(-c2ccccc2N2CCC2)n1)C(=O)O [Compound 1, 2-((1-(2-(azetidin-1-yl)phenyl)-5-(3-cyclobutoxyphenyl)-1H-pyrazol-3-yl)methoxy)-2-methylpropanoic acid]
[1]; [3]
  AUC(0-inf): 991 µg·h/mL
  half-life: 7 h
  MRT inf: 10 h
[1]; [4]
  AUC(0-inf): 168 µg·h/mL
  half-life: 3.27 h
  MRT inf: 4.54 h
[1]; [5]
  AUC(0-inf): 1770 µg·h/mL
  half-life: 9.1 h
  MRT inf: 13.6 h
[1]; [6]
  AUC(0-inf): 447 µg·h/mL
  half-life: 2.92 h
  MRT inf: 5.33 h
[1]; [7]
  AUC(0-inf): 3820 µg·h/mL
  half-life: 10.4 h
  MRT inf: 15.9 h
[1]; [8]
  AUC(0-inf): 1110 µg·h/mL
  half-life: 3.14 h
  MRT inf: 6.01 h
[1]; female, Sprague-Dawley, rat, plasma, po, 20 mg/kg, rat PO 20 mg/kg, female, mean, read-out: AUClast
  AUC(0-t): 885 µg·h/mL
[1]; female, Sprague-Dawley, rat, plasma, po, 20 mg/kg, rat PO 20 mg/kg, female, mean, read-out: Cmax
  Cmax: 78.9 µg/mL
[1]; female, Sprague-Dawley, rat, plasma, po, 20 mg/kg, rat PO 20 mg/kg, female, mean
  Tmax: 2.67 h
[1]; female, Sprague-Dawley, rat, plasma, po, 20 mg/kg, rat, Female, PO/20 mg/kg, Mean ± SD, read-out: AUC0-24
  AUC(0-t): 885 µg·h/mL
[1]; female, Sprague-Dawley, rat, plasma, po, 20 mg/kg, rat, Female, PO/20 mg/kg, Mean ± SD, read-out: Cmax
  Cmax: 78.8 µg/mL
[1]; female, Sprague-Dawley, rat, plasma, po, 60 mg/kg, rat PO 60 mg/kg, female, mean, read-out: AUClast
  AUC(0-t): 1430 µg·h/mL
[1]; female, Sprague-Dawley, rat, plasma, po, 60 mg/kg, rat PO 60 mg/kg, female, mean, read-out: Cmax
  Cmax: 113 µg/mL
[1]; female, Sprague-Dawley, rat, plasma, po, 60 mg/kg, rat PO 60 mg/kg, female, mean
  Tmax: 4.67 h
[1]; female, Sprague-Dawley, rat, plasma, po, 60 mg/kg, rat, Female, PO/60 mg/kg, Mean ± SD, read-out: AUC0-24
  AUC(0-t): 1430 µg·h/mL
[1]; female, Sprague-Dawley, rat, plasma, po, 60 mg/kg, rat, Female, PO/60 mg/kg, Mean ± SD, read-out: Cmax
  Cmax: 113 µg/mL
[1]; female, Sprague-Dawley, rat, plasma, po, 60 mg/kg, rat, Female, PO/60 mg/kg, Mean ± SD
  Tmax: 4.7 ± 2.3 h
[1]; female, Sprague-Dawley, rat, plasma, po, 200 mg/kg, rat PO 200 mg/kg, female, mean, read-out: AUClast
  AUC(0-t): 2850 µg·h/mL
[1]; female, Sprague-Dawley, rat, plasma, po, 200 mg/kg, rat PO 200 mg/kg, female, mean, read-out: Cmax
  Cmax: 206 µg/mL
[1]; female, Sprague-Dawley, rat, plasma, po, 200 mg/kg, rat PO 200 mg/kg, female, mean
  Tmax: 4.67 h
[1]; female, Sprague-Dawley, rat, plasma, po, 200 mg/kg, rat, Female, PO/200 mg/kg, Mean ± SD, read-out: AUC0-24
  AUC(0-t): 2850 µg·h/mL
[1]; female, Sprague-Dawley, rat, plasma, po, 200 mg/kg, rat, Female, PO/200 mg/kg, Mean ± SD, read-out: Cmax
  Cmax: 206 µg/mL
[1]; female, Sprague-Dawley, rat, plasma, po, 200 mg/kg, rat, Female, PO/200 mg/kg, Mean ± SD
  Tmax: 4.7 ± 1.1 h
[1]; male, Sprague-Dawley, rat, plasma, po, 20 mg/kg, rat PO 20 mg/kg, male, mean, read-out: AUClast
  AUC(0-t): 167 µg·h/mL
[1]; male, Sprague-Dawley, rat, plasma, po, 20 mg/kg, rat PO 20 mg/kg, male, mean, read-out: Cmax
  Cmax: 30.6 µg/mL
[1]; male, Sprague-Dawley, rat, plasma, po, 20 mg/kg, rat PO 20 mg/kg, male, mean
  Tmax: 1 h
[1]; male, Sprague-Dawley, rat, plasma, po, 20 mg/kg, rat, Male, PO/20 mg/kg, Mean ± SD, read-out: AUC0-24
  AUC(0-t): 167 µg·h/mL
[1]; male, Sprague-Dawley, rat, plasma, po, 20 mg/kg, rat, Male, PO/20 mg/kg, Mean ± SD, read-out: Cmax
  Cmax: 30.6 µg/mL
[1]; male, Sprague-Dawley, rat, plasma, po, 20 mg/kg, rat, Male, PO/20 mg/kg, Mean ± SD
  Tmax: 1 h
[1]; male, Sprague-Dawley, rat, plasma, po, 60 mg/kg, rat PO 60 mg/kg, male, mean, read-out: AUClast
  AUC(0-t): 445 µg·h/mL
[1]; male, Sprague-Dawley, rat, plasma, po, 60 mg/kg, rat PO 60 mg/kg, male, mean, read-out: Cmax
  Cmax: 56.5 µg/mL
[1]; male, Sprague-Dawley, rat, plasma, po, 60 mg/kg, rat PO 60 mg/kg, male, mean
  Tmax: 2.67 h
[1]; male, Sprague-Dawley, rat, plasma, po, 60 mg/kg, rat, Male, PO/60 mg/kg, Mean ± SD, read-out: AUC0-24
  AUC(0-t): 445 µg·h/mL
[1]; male, Sprague-Dawley, rat, plasma, po, 60 mg/kg, rat, Male, PO/60 mg/kg, Mean ± SD, read-out: Cmax
  Cmax: 56.5 µg/mL
[1]; male, Sprague-Dawley, rat, plasma, po, 60 mg/kg, rat, Male, PO/60 mg/kg, Mean ± SD
  Tmax: 2.7 ± 1.2 h
[1]; male, Sprague-Dawley, rat, plasma, po, 200 mg/kg, rat PO 200 mg/kg, male, mean, read-out: AUClast
  AUC(0-t): 1100 µg·h/mL
[1]; male, Sprague-Dawley, rat, plasma, po, 200 mg/kg, rat PO 200 mg/kg, male, mean, read-out: Cmax
  Cmax: 115 µg/mL
[1]; male, Sprague-Dawley, rat, plasma, po, 200 mg/kg, rat PO 200 mg/kg, male, mean
  Tmax: 4 h
[1]; male, Sprague-Dawley, rat, plasma, po, 200 mg/kg, rat, Male, PO/200 mg/kg, Mean ± SD, read-out: AUC0-24
  AUC(0-t): 1100 µg·h/mL
[1]; male, Sprague-Dawley, rat, plasma, po, 200 mg/kg, rat, Male, PO/200 mg/kg, Mean ± SD, read-out: Cmax
  Cmax: 115 µg/mL
[1]; male, Sprague-Dawley, rat, plasma, po, 200 mg/kg, rat, Male, PO/200 mg/kg, Mean ± SD
  Tmax: 4 ± 2 h
[1]; rat PO 20 mg/kg, female, mean
  AUClast/D: 44231
  AUC—% Extrap—obs: 9.9%
[1]; rat PO 20 mg/kg, female, mean, listed as Free Acid, 20 mg/kg
  Cmax: 78.833 µg/mL
[1]; rat PO 20 mg/kg, male, mean
  AUC—% Extrap—obs: 0.61%
[1]; rat PO 60 mg/kg, female, mean
  AUClast/D: 23759
  AUC—% Extrap—obs: 16.7%
[1]; rat PO 60 mg/kg, male, mean
  AUClast/D: 7419
  AUC—% Extrap—obs: 0.477%
[1]; rat PO 200 mg/kg, female, mean
  AUClast/D: 14265
  AUC—% Extrap—obs: 22.1%
[1]; rat PO 200 mg/kg, male, mean
  AUClast/D: 5525
  AUC—% Extrap—obs: 0.704%
[1]; rats, single oral gavage dose
  Clinical symptoms: No abnormal clinical symptoms were observed
[2]; male rats, 28 days oral gavage, read-out: NOAEL
  NOAEL at 28 days: 120 mg/kg/day
[2]; po, female rats, 75 mg/kg/day
  AUC(0-t): 3230 µg·h/mL
  Cmax: 198 µg/mL
[2]; po, male rats, 120 mg/kg/day
  AUC(0-t): 2780 µg·h/mL
  Cmax: 180 µg/mL
[2]; female, po
  NOAEL at 28 days: 75 mg/kg/day

From US20250179049A1, “SALTS OF HETEROCYCLIC INHIBITORS OF MONOCARBOXYLATE TRANSPORTER 4 FOR THE TREATMENT OF DISEASE” (Vettore, LLC, priority 2022, published 2025)
